Data published in patent US11523614B2, “Soluble granule of Bacillus velezensis and its preparation method” (priority 2019, dated 2022).
Read-outs that look alike come from different tables or passages of the source.

Columns and labels:
Format in all cases: in vivo
Meloidogyne incognita [1] = assay: Population density of J2 of root knot nematodes in soil, cucumber greenhouse; conditions: for Population decline rate / Relative population reduction rate: J2 in soil; for Population decline rate: before administration vs end of test; for Relative population reduction rate: compared with the blank control; for population density of second instar larvae in soil, Before administration / population density of second instar larvae in soil, End of test: cucumber greenhouse soil
cucumber = assay: Cucumber plant height at early stage; conditions: for Growth effect: plant height compared with CK0; for plant height at early stage, Avg. value: average of three replicates; for plant height at early stage, R1: average value of replicate 1; for plant height at early stage, R3: average value of replicate 3
Rice blast [2] = conditions: 27 d After first administration; for Relative control: panicle blast
Rice blast [3] = conditions: for Avg. control effect: leaf blast
Meloidogyne incognita [4] = assay: Root-knot disease index of cucumber; conditions: for root-knot index of plants, Avg. value: average of three replicates; for root-knot index of plants, R1: average value of replicate 1; for root-knot index of plants, R3: average value of replicate 3
[5] = 14 d After first administration
[6] = before the first administration
[7] = root-knot index compared with CK0

Row | Structure (SMILES) | Population decline rate (Meloidogyne incognita [1]) [%] | Relative population reduction rate (Meloidogyne incognita [1]) [%] | Growth effect (cucumber) [%] | Avg. panicle blast disease index (Rice blast [2]) | Relative control (Rice blast [2]) [A %] | Avg. leaf blast disease index (Rice blast [3]; 7 d After first administration) | Avg. leaf blast disease index (Rice blast [3]; [5]) | Avg. control effect (Rice blast [3]; 7 d After first administration) | Avg. control effect (Rice blast [3]; [5]) [A %] | root-knot index of plants, Avg. value (Meloidogyne incognita [4]) | root-knot index of plants, R1 (Meloidogyne incognita [4]) | root-knot index of plants, R3 (Meloidogyne incognita [4]) | population density of second instar larvae in soil, Before administration (Meloidogyne incognita [1]) [strip/100 mL soil] | population density of second instar larvae in soil, End of test (Meloidogyne incognita [1]) [strip/100 mL soil] | plant height at early stage, Avg. value (cucumber) | plant height at early stage, R1 (cucumber) [cm] | plant height at early stage, R3 (cucumber) [cm] | also measured
1 | C[C@H]1O[C@H](O[C@H]2[C@H](O)[C@@H](O)[C@@H](O)[C@H](O)[C@@H]2O)[C@@H](N)C[C@@H]1NC(=N)C(=O)O [CK2, kasugamycin] | 73.31 | 76.05 | 6.5 | 0.86 | 66.3 | 2.26 | 2.30 | 40.8AB % | 55.7 | – | – | – | – | – | – | – | – | Leaf blast disease index before first administration (Rice blast [3]; [6]): 1.61
2 | Cc1cccc2sc3nncn3c12 [CK3, Tricyclazole] | – | – | – | 0.65 | 74.7 | 2.04 | 2.14 | 48.2A % | 60.3 | – | – | – | – | – | – | – | – | Leaf rust before administration (Rice blast [3]; [6]): 1.59
3 | CN1CSC(=S)N(C)C1 [Dazomet, dazomet] | −119.21 | −116.47 | −0.4 | – | – | – | – | – | – | 26.44ab | 27.33 | 26.33 | 429 | 940 | 100.6a cm | 98.5 | 103.5 | Control effect on root-knot index (Meloidogyne incognita [4]; [7]): 26.77%
4 | O=C(NCc1ncc(C(F)(F)F)cc1Cl)c1c(Cl)cccc1Cl [Fluopicolide, fluopicolide] | 73.31 | 76.05 | 6.5 | – | – | – | – | – | – | 25.00a | 28.33 | 24.67 | 390 | 104 | 107.6bc cm | 109.4 | 109.3 | Growth effect (Meloidogyne incognita [4]; [7]): 30.77%
